Measurements published in ChEMBL document CHEMBL4304757, “Synthetic heterocyclic candidates as promising α-glucosidase inhibitors: An overview” (Eur J Med Chem, 2019).

biological target: Alpha glucosidase (Homo sapiens, UniProt O43451+P10253+P14410+Q2M2H8); assay: Inhibition of alpha-glucosidase (unknown origin); type: protein assay

Row | SMILES | IC50 | Ki
1 | O=C(C[C@@H](c1cccc(Br)c1)c1c[nH]c2ccccc12)c1ccccc1 | 4.3 to 43 µM | –
2 | Cn1cc(-c2nnc(-c3ccc(C(c4c[nH]c5ccccc45)c4c[nH]c5ccc(Cl)cc45)cc3)o2)c2ccccc21 (stereo unspecified) | 2 µM | –
3 | c1ccc2c(-c3nnc(-c4ccc(C(c5c[nH]c6ccccc56)c5c[nH]c6ccccc56)cc4)o3)c[nH]c2c1 | 20 to 292 µM | –
4 | O=C(C[C@@H](c1cccs1)c1c[nH]c2ccccc12)c1ccccc1 | 4.3 to 43 µM | –
5 | CCOC(=O)CC(=O)OCC [MALONIC ACID DIETHYL ESTER] | 5 to 16 µM | –
6 | COc1ccc([C@H](CC(=O)c2ccc3ccccc3c2)c2c[nH]c3ccccc23)cc1 | 4.3 to 43 µM | –
7 | Cc1ccccc1NC(=O)Cn1cc(Cn2c(-c3ccc(Br)cc3)nc(-c3ccccc3)c2-c2ccccc2)nn1 | 15 to 48 µM | –
8 | CCCCCCCCCCCC(=O)N/N=C1\C(=O)Nc2ccccc21 | 2.2 to 83 µM | –
9 | O=C1Nc2cc(Cl)ccc2/C1=C/c1ccc(-c2nnc(-c3cc(O)cc(O)c3)o2)cc1 | 1.2 µM | –
10 | Cn1cc(C(c2ccc(-c3nnc(-c4c[nH]c5ccccc45)o3)cc2)c2cn(C)c3ccccc23)c2ccccc21 | 20 to 292 µM | –
11 | O=C(Cc1ccc(Cl)c(Cl)c1)N/N=C1\C(=O)Nc2cc(Br)ccc21 | 2.2 to 83 µM | –
12 | COc1ccc(Cc2nnc(-c3ccc(Cl)cc3)n2CC(=O)NNC(=S)Nc2ccc(Cl)cc2)cc1 | 3.4 µM | –
13 | O=C1CSC(=O)N1 [THIAZOLIDINEDIONE] | 0.54 to 2.2 µM | –
14 | Cc1[nH]c2ccccc2c1-c1nnc(-c2ccc(C(c3c[nH]c4ccc(Br)cc34)c3c[nH]c4ccc(Br)cc34)cc2)o1 | 20 to 292 µM | –
15 | Cc1ccccc1NC(=O)Cn1cc(Cn2c(-c3cccc(F)c3)nc(-c3ccccc3)c2-c2ccccc2)nn1 | 15 to 48 µM | –
16 | O=C(C[C@@H](c1ccccc1)c1c[nH]c2ccccc12)c1ccc2ccccc2c1 | 4.3 to 43 µM | –
17 | Cc1c(C(c2ccc(-c3nnc(-c4cn(C)c5ccccc45)o3)cc2)c2c(C)n(C)c3ccccc23)c2ccccc2n1C | 20 to 292 µM | –
18 | O=C(C[C@@H](c1ccc(Cl)cc1)c1c[nH]c2ccccc12)c1ccccc1 | 4.3 to 43 µM | –
19 | Cc1[nH]c2ccccc2c1-c1nnc(-c2ccc(C(c3c[nH]c4ccc(C#N)cc34)c3c[nH]c4ccc(C#N)cc34)cc2)o1 | 20 to 292 µM | –
20 | Cc1ccc(C(=O)N/N=C2\C(=O)Nc3ccc(Cl)cc32)cc1 | 2.2 to 83 µM | –

Row | SMILES | IC50 | Ki
21 | O=C(C[C@@H](c1ccc(Cl)cc1Cl)c1c[nH]c2ccccc12)c1ccccc1 | 4.3 to 43 µM | –
22 | c1ccc(-c2[nH]c3ccccc3c2C(c2ccc(-c3nnc(-c4c[nH]c5ccccc45)o3)cc2)c2c(-c3ccccc3)[nH]c3ccccc23)cc1 | 20 to 292 µM | –
23 | COc1ccccc1-c1nc(-c2ccccc2)c(-c2ccccc2)n1Cc1cn(CC(=O)Nc2ccc(C)cc2)nn1 | 15 to 48 µM | –
24 | Cc1cccc([C@H](CC(=O)c2ccccc2)c2c[nH]c3ccccc23)c1 | 4.3 to 43 µM | –
25 | O=C(C[C@@H](c1c(Cl)cccc1Cl)c1c[nH]c2ccccc12)c1ccccc1 | 4.3 µM | –
26 | COC(=O)CC(C)=O | 19 to 25 µM | –
27 | O=C(C[C@@H](c1cccc([N+](=O)[O-])c1)c1c[nH]c2ccccc12)c1ccccc1 | 4.3 to 43 µM | –
28 | O=C(C[C@@H](c1ccc(Cl)cc1)c1c[nH]c2ccccc12)c1ccc2ccccc2c1 | 4.3 to 43 µM | –
29 | COc1ccc(Cc2nnc(-c3ccc(Cl)cc3)n2Cc2nn(CN3CCN(C)CC3)c(=S)o2)cc1 | 4.3 µM | –
30 | CCOc1ccccc1NC(=O)Cn1cc(Cn2c(-c3ccccc3F)nc(-c3ccccc3)c2-c2ccccc2)nn1 | 15 to 48 µM | –
31 | CCn1c2ccccc2c2cc(NC(=O)CSc3nc4ccccc4[nH]3)ccc21 | 0.17 µM | –
32 | Cc1[nH]c2ccccc2c1-c1nnc(-c2ccc(C(c3cn(C)c4ccccc34)c3cn(C)c4ccccc34)cc2)o1 | 20 to 292 µM | –
33 | Cn1cc(-c2nnc(-c3ccc(C(c4c[nH]c5ccc(C#N)cc45)c4c[nH]c5ccc(C#N)cc45)cc3)o2)c2ccccc21 | 20 to 292 µM | –
34 | Clc1ccc2[nH]cc(C(c3ccc(-c4nnc(-c5c[nH]c6ccccc56)o4)cc3)c3c[nH]c4ccc(Cl)cc34)c2c1 | 20 to 292 µM | –
35 | Cc1[nH]c2ccccc2c1-c1nnc(-c2ccc(C(c3c(-c4ccccc4)[nH]c4ccccc34)c3c(-c4ccccc4)[nH]c4ccccc34)cc2)o1 | 20 to 292 µM | –
36 | Cn1cc(-c2nnc(-c3ccc(C(c4c[nH]c5ccccc45)c4c[nH]c5ccccc45)cc3)o2)c2ccccc21 | 20 to 292 µM | –
37 | O=C(Cn1cc(Cn2c(-c3ccc(F)cc3)nc(-c3ccccc3)c2-c2ccccc2)nn1)Nc1ccc(Cl)cc1Cl | 15 to 48 µM | –
38 | O=C(C[C@@H](c1ccccc1)c1c[nH]c2ccccc12)c1ccccc1 | 4.3 to 43 µM | –
39 | COc1ccc(-c2nc(-c3ccccc3)c(-c3ccccc3)n2Cc2cn(CC(=O)Nc3ccc(Cl)cc3Cl)nn2)cc1OC | 15 to 48 µM | –
40 | O=C(Cc1ccc(Cl)cc1Cl)N/N=C1\C(=O)Nc2cc(Br)ccc21 | 2.2 µM | –

Row | SMILES | IC50 | Ki
41 | COc1ccc(NC(=O)Cn2cc(Cn3c(-c4cccs4)nc(-c4ccccc4)c3-c3ccccc3)nn2)cc1 | 15 to 48 µM | –
42 | CCOc1ccc(NC(=O)Cn2cc(Cn3c(-c4ccc(C(=O)OC)cc4)nc(-c4ccccc4)c3-c3ccccc3)nn2)cc1 | 15 to 48 µM | –
43 | Cc1ccc([C@H](CC(=O)c2ccccc2)c2c[nH]c3ccccc23)cc1 | 4.3 to 43 µM | –
44 | Cc1[nH]c2ccccc2c1-c1nnc(-c2ccc(C(c3c[nH]c4ccccc34)c3c[nH]c4ccccc34)cc2)o1 | 20 to 292 µM | –
45 | COC(=O)c1ccc(-c2nc(-c3ccccc3)c(-c3ccccc3)n2Cc2cn(CC(=O)Nc3cc(Cl)ccc3Cl)nn2)cc1 | 15 to 48 µM | –
46 | O=C(C[C@@H](c1ccc(Br)cc1)c1c[nH]c2ccccc12)c1ccccc1 | 4.3 to 43 µM | –
47 | N#Cc1ccc2[nH]cc(C(c3ccc(-c4nnc(-c5c[nH]c6ccccc56)o4)cc3)c3c[nH]c4ccc(C#N)cc34)c2c1 | 20 to 292 µM | –
48 | Cn1cc(-c2nnc(-c3ccc(C(c4c[nH]c5ccc(Cl)cc45)c4c[nH]c5ccc(Cl)cc45)cc3)o2)c2ccccc21 | 20 to 292 µM | –
49 | CCCN1C(=O)/C(=N\NC(=O)Cc2ccc(Cl)cc2Cl)c2ccccc21 | 2.2 to 83 µM | –
50 | Cc1[nH]c2ccccc2c1-c1nnc(-c2ccc(C(c3c(C)n(C)c4ccccc34)c3c(C)n(C)c4ccccc34)cc2)o1 | 20 to 292 µM | –
51 | Cn1cc(-c2nnc(-c3ccc(C(c4c(-c5ccccc5)[nH]c5ccccc45)c4c(-c5ccccc5)[nH]c5ccccc45)cc3)o2)c2ccccc21 | 20 to 292 µM | –
52 | Cn1cc(-c2nnc(-c3ccc(C(c4cn(C)c5ccccc45)c4cn(C)c5ccccc45)cc3)o2)c2ccccc21 | 20 to 292 µM | –
53 | O=C(Cn1cc(Cn2c(-c3ccc(Br)cc3)nc(-c3ccccc3)c2-c2ccccc2)nn1)Nc1ccc(F)cc1 | 15 to 48 µM | –
54 | Cc1ccc([C@H](CC(=O)c2ccc3ccccc3c2)c2c[nH]c3ccccc23)cc1 | 4.3 to 43 µM | –
55 | CCOc1ccccc1NC(=O)Cn1cc(Cn2c(-c3cccc(Br)c3)nc(-c3ccccc3)c2-c2ccccc2)nn1 | 15 µM | 14 µM
56 | CCOc1ccc(NC(=O)Cn2cc(Cn3c(-c4cccc(Cl)c4)nc(-c4ccccc4)c3-c3ccccc3)nn2)cc1 | 15 to 48 µM | –
57 | Cc1ccc(NC(=O)Cn2cc(Cn3c(-c4cccc(Cl)c4)nc(-c4ccccc4)c3-c3ccccc3)nn2)c(C)c1 | 15 to 48 µM | –
58 | Cc1c(C(c2ccc(-c3nnc(-c4c[nH]c5ccccc45)o3)cc2)c2c(C)n(C)c3ccccc23)c2ccccc2n1C | 20 to 292 µM | –
59 | Cc1[nH]c2ccccc2c1-c1nnc(-c2ccc(C(c3c[nH]c4ccc(Cl)cc34)c3c[nH]c4ccc(Cl)cc34)cc2)o1 | 20 to 292 µM | –
60 | Cn1cc(-c2nnc(-c3ccc(C(c4c[nH]c5ccc(Br)cc45)c4c[nH]c5ccc(Br)cc45)cc3)o2)c2ccccc21 | 20 to 292 µM | –
